Legend:
GST-VCB protein complex [1] = target: T1, GST-VCB protein complex (Homo sapiens, UniProt P40337); assay: BODIPY FL VH032 (5)-mediated pVHL FP binding assay (competition); conditions: for pVHL inhibitory activity in the FP assay: 2.1 pM to 30 μM
Protocol: It was freshly prepared every time before an experiment. […] The FP signals were determined at the 90-min incubation time. […] The FP signals or the FP signal fold changes were plotted with the GraphPad Prism software. […] The FP Ki values were used to compare the relative binding affinities of the test ligands to pVHL.

GST-VCB protein complex [2] = target: T1, GST-VCB protein complex; assay: BODIPY FL VH032 (5)-mediated pVHL TR-FRET binding assay (competition); conditions: for pVHL inhibitory activity in the TR-FRET binding assay: 2.1 pM to 30 μM; for pVHL inhibitory activity in the TR-FRET binding assay / IC50 / Ki: 90-min incubation; for IC50 / Ki: 4 nM BODIPY FL VH032 (5), 2 nM Tb-anti-GST; for Ki: read-out: Ki, pVHL TR-FRET binding assay (Cheng-Prusoff)
VCB = VCB (Homo sapiens, UniProt P40337); conditions: 10 nM FAM-HIF-1α, 15 nM VCB; read-out: Kd, reported FAM-HIF-1α peptide (19-mer)-based FP assay; cited from earlier work
GST-VCB protein complex [3] = target: T1, GST-VCB protein complex; assay: Determination of BODIPY FL VH032 (5) binding Kd to GST-VCB protein complex in a TR-FRET binding assay; conditions: for Kd: 2 nM GST-VCB
From the text: For the BODIPY FL VH032 (5)-mediated pVHL TR-FRET binding assay, a reported TR-FRET assay protocol (Lin, et al. (2014) Development of BODIPY FL vindoline as a novel and high-affinity pregnane X receptor fluorescent probe. Bioconjug Chem 25, 1664-1677) was followed except that an Echo 555 Acoustic Liquid Handler (Labcyte Inc., San Jose, CA) was used to dispense chemicals and BODIPY FL VH032 (5), GST-VCB and Tb-anti-GST antibody were used.
The pVHL TR-FRET binding assay buffer has a formula of 50 mM Tris pH 7.5, 0.1% Triton X-100, 0.01% bovine serum albumin, 1 mM DTT. It was freshly prepared every time before an experiment.
Dilutions of BODIPY FL VH032 (5, 1-to-2 dilutions, a concentration range of 0.06 nM to 500 nM) was incubated with 2 nM Tb-anti-GST along with, group 1: 2 nM GST-VCB+DMSO; group 2: 2 nM GST-VCB+VH298 (2, 30 μM); or group 3: without GST-VCB+DMSO. The TR-FRET signals were monitored every 30 min from 30 min to 300 min with a PHERAstar FS plate reader equipped with a TR-FRET optic module (excitation: 340 nm; emission 1: 520 nm; emission 2: 490 nm). The TR-FRET signals were fitted into GraphPad Prism 8.4.3 software (GraphPad Software; San Diego, CA) using a one-site total binding equation to derive curves for each group.

GST-VCB protein complex [4] = target: T1, GST-VCB protein complex; assay: Determination of BODIPY FL VH032 (5) binding Kd to GST-VCB protein complex in a FP binding assay; conditions: VH298 30 μM, 1000 nM GST-VCB, 10 nM probe
Protocol: For the BODIPY FL VH032 (5)-mediated pVHL FP binding assay, the general TR-FRET assay protocol was followed except that the […] antibody was not added and the PHERAstar FS plate reader (BMG Labtech; Durham, NC) was equipped with a FP optic module (Excitation: 485 nm, Emission: 520 nm) to read FP assay signals.
The pVHL FP assay buffer has a formula of 25 mM HEPES pH 7.4, 0.01% Tween-20, 0.5 mM DTT, 0.01% BSA. It was freshly prepared every time before an experiment.
BODIPY FL VH032 (5, 10 nM) was incubated with dilutions of GST-VCB (1-to-2 dilutions, a concentration range of 0.03 nM to 1 μM) along with the DMSO group or VH298 (2, 30 μM) group. In addition, BODIPY FL VH032 (5, 10 nM) was incubated with DMSO only, but without GST-VCB. The FP signals were determined with the PHERAstar FS plate reader. The representative data collected at 90-min incubation time was plotted with the GraphPad Prism software using a one-site total binding equation to derive curves for each group. The binding affinity Kd values were derived from the DMSO with GST-VCB.

NCCCCNC(=O)COc1cccc2c1C(=O)N(C1CCC(=O)NC1=O)C2=O (stereo not drawn)
pVHL inhibitory activity in the FP assay (GST-VCB protein complex [1]; 90-min incubation): did not show pVHL inhibitory activity | pVHL inhibitory activity in the TR-FRET binding assay (GST-VCB protein complex [2]): inactive

Cc1ncsc1-c1ccc(CNC(=O)[C@@H]2C[C@@H](O)CN2C(=O)[C@@H](NC(=O)OC(C)(C)C)C(C)(C)C)cc1 [BOC-VH032 (8)]
IC50 (GST-VCB protein complex [1]; 10 nM BODIPY FL VH032 (5), 100 nM GST-VCB, 90-min incubation): 16300 nM | Ki (GST-VCB protein complex [1]; 10 nM BODIPY FL VH032 (5), 100 nM GST-VCB, 90-min incubation, read-out: Ki, pVHL FP assay (Nikolovska-Coleska method)): 8000 nM | Kd (VCB): 6500 nM | IC50 (GST-VCB protein complex [2]; 2 nM GST-VCB): 4900 nM | Ki (GST-VCB protein complex [2]; 2 nM GST-VCB): 2100 nM

CC1=CC(C)=[N+]2C1=Cc1ccc(CCC(=O)NCCOCCOCCOCCOCC(=O)NC(C(=O)N3CC(O)CC3C(=O)NCc3ccc(-c4scnc4C)cc3)C(C)(C)C)n1[B-]2(F)F [BODIPY FL VH032 (5), (2S,4R)-1-4S)-2-(tert-butyl)-21-(5,5-difluoro-7,9-Dimethyl-5H-5Λ^4,6Λ^4-dipyrrolo[1,2-c:2′,1′-f][1,3,2]diazaborinin-3-yl)-4,19-dioxo-6,9,12,15-tetraoxa-3,18-diazahenicosanoyl)-4-hydroxy-N-(4-O-methylthiazol-5-yl)benzyl)pyrrolidine-2-carboxamide]
Kd (GST-VCB protein complex [3]; 90-min incubation, 2 nM Tb-anti-GST): 3.01 nM | Kd (GST-VCB protein complex [3]; 120-min incubation): 3.04 nM | Kd (GST-VCB protein complex [3]; 150-min incubation): 3.01 nM | Kd (GST-VCB protein complex [3]; 180-min incubation): 2.98 nM | Kd (GST-VCB protein complex [3]; 240-min incubation): 2.98 nM | Kd (GST-VCB protein complex [3]; 300-min incubation): 3.04 nM | highest TR-FRET signal fold change, 2 nM GST-VCB+DMSO / without GST-VCB+DMSO (GST-VCB protein complex [3]; at 3.9 nM BODIPY FL VH032 (5), 90 min): 16.2 fold | highest TR-FRET signal fold change, 2 nM GST-VCB+DMSO / 2 nM GST-VCB+VH-298 (2) (GST-VCB protein complex [3]; at 7.8 nM BODIPY FL VH032 (5), 90 min): 15.1 fold

Cc1ncsc1-c1ccc([C@H](C)NC(=O)[C@@H]2C[C@@H](O)CN2C(=O)[C@@H](N)C(C)(C)C)cc1 [Me-VH032 amine (7)]
concentration at which the compound disturbed the FP assay detection (assay interference) (GST-VCB protein complex [1]; FP assay, not observed in TR-FRET): ≥ 370 nM | IC50 (GST-VCB protein complex [2]; 2 nM GST-VCB): 7900 nM | Ki (GST-VCB protein complex [2]; 2 nM GST-VCB): 3400 nM

Cc1ncsc1-c1ccc(CNC(=O)[C@@H]2C[C@@H](O)CN2C(=O)[C@@H](NC(=O)COCCOCCOCCOCCN)C(C)(C)C)cc1 [VH032-PEG4-amine (10)]
IC50 (GST-VCB protein complex [2]; 2 nM GST-VCB): 5.9 nM

Cc1ncsc1-c1ccc(CNC(=O)[C@@H]2C[C@@H](O)CN2C(=O)[C@@H](NC(=O)C2(C#N)CC2)C(C)(C)C)cc1 [VH298 (2), (2S,4R)-1-((S)-2-(1-Cyanocyclopropanecarboxamido)-3,3-dimethylbutanoyl)-4-hydroxy-N-(4-(4-methylthiazol-5-yl)benzyl)pyrrolidine-2-carboxamide]
FP signal of the positive control (GST-VCB protein complex [1]; VH298 30 μM, 10 nM probe, 100 nM GST-VCB, 90 min): 14.5 mP | TR-FRET signal of the positive control group (GST-VCB protein complex [2]; VH298 30 μM, 2 nM GST-VCB, 4 nM probe, all incubation times 30 to 300 min): 278.7±4.5 RTU | FP signal, GST-VCB-mediated non-specific interaction (GST-VCB protein complex [4]): 43.0 mP

Cc1sc2c(c1C)C(c1ccc(Cl)cc1)=N[C@@H](CC(=O)NCCCCNC(=O)COc1cccc3c1C(=O)N(C1CCC(=O)NC1=O)C3=O)c1nnc(C)n1-2 (stereo partly drawn) [dBET1 (12)]
pVHL inhibitory activity in the FP assay (GST-VCB protein complex [1]; 90-min incubation): did not show pVHL inhibitory activity | pVHL inhibitory activity in the TR-FRET binding assay (GST-VCB protein complex [2]): inactive
